For assay [1], the target named is T1, human Dopamine D2 receptor (Homo sapiens, UniProt P14416).
T1 construct: purchased BioSignal, Inc. (Montreal, Canada)
In words: Binding affinity at the human dopamine D2 receptor. As to conditions: Table 3c; read-out: hD2 Ki. From the text: (§1) Other receptors: Cell membranes expressing human dopamine D1, D2, D4 and rat D3 receptors were purchased through BioSignal, Inc. (Montreal, Canada). Binding assays using the histamine H1 receptor; dopamine receptors; and α1A, α1B, and α2 adrenergic receptors may be carried out according to the procedures described in U.S. Pat. No. 5,780,485, the disclosure of which is hereby incorporated by reference in its entirety into this application. Binding assays using the dopamine D5 receptor may be carried out according to the procedures described in U.S. Pat. No. 5,882,855, the disclosure of which is hereby incorporated by reference in its entirety into this application. Binding assays for the human α1D adrenergic receptor may be carried out according to the procedures described in U.S. Pat. No. 6,156,518, the disclosure of which is hereby incorporated by reference in its entirety into this application.

The target of another assay is T2, rat MCH1 receptor (Rattus norvegicus, UniProt P97639).
T2 construct: expressed in transfected cells
T2 sequence (P97639 whole entry): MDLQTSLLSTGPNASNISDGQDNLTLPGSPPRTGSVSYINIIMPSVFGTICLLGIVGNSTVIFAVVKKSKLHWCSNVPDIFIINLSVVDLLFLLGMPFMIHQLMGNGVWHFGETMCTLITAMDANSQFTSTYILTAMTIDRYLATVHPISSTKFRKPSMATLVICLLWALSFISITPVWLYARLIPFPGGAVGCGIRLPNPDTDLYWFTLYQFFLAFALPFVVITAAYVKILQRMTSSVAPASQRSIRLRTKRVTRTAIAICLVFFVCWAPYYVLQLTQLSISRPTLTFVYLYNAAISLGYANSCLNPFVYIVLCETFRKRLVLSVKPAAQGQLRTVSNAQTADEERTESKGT
In words: Binding affinity (Ki) at the rat MCH1 receptor. How it is done: For binding assays, pellets of transfected cells are suspended in ice-cold buffer (20 mM Tris.HCl, 5 mM EDTA, pH 7.4) and homogenized by sonication for 7 sec. The cell lysates are centrifuged at 200×g for 5 min at 4° C. The supernatants are then centrifuged at 40,000×g for 20 min at 4° C. The resulting pellets are washed once in the homogenization buffer and suspended in binding buffer (see methods for radioligand binding). Protein concentrations are determined by the method of Bradford (1976) using bovine serum albumin as the standard. Binding assays are usually performed immediately, however it is possible to prepare membranes in batch and store frozen in liquid nitrogen for future use.
Binding is performed at 25° C. for 1 hr. Incubations are terminated by rapid vacuum filtration over GF/C glass fiber filters, presoaked in 5% PEI using 50 mM Tris pH 7.4 containing 0.01% triton X-100 as wash buffer.
A methanolic solution of methyl (4S)-3-({[3-(4-[3-(acetylamino)phenyl]-3,6-dihydro-1(2H)pyridinyl)propyl]amino}carbonyl)-4-(3,4-difluorophenyl)-6-(methoxymethyl)-2-oxo-1,2,3,4-tetrahydro-5-pyrimidinecarboxylate was exposed to tritium gas at 1 atmosphere pressure in the presence of 5% palladium on carbon with stirring overnight to give the tritiated methyl (4S)-3-{[(3-{4-[3-(acetylamino)phenyl]-1-piperidinyl}propyl)amino]carbonyl}-4-(3,4-difluorophenyl)-6-(methoxymethyl)-2-oxo-1,2,3,4-tetrahydro-5-pyrimidinecarboxylate ((+)-isomer) After purification by reverse phase HPLC (Hypersil ODS, 4.6×100 mm, methanol:H2O:Et3N 10:90:1 to 100:0:1 in 15 min at 1.0 mL/min, with radiochemical and UV detection), this product was used as a radioligand in the MCH1 binding assays. The same procedure was carried out with H2 gas in place of ^3H2 to afford the non-radioactive version of Compound 10.

Assay [2] deals with T3, human Alpha-1a Adrenergic receptor (Homo sapiens, UniProt P35348).
T3 construct: expressed in transfected cells
T3 sequence (P35348 1-466): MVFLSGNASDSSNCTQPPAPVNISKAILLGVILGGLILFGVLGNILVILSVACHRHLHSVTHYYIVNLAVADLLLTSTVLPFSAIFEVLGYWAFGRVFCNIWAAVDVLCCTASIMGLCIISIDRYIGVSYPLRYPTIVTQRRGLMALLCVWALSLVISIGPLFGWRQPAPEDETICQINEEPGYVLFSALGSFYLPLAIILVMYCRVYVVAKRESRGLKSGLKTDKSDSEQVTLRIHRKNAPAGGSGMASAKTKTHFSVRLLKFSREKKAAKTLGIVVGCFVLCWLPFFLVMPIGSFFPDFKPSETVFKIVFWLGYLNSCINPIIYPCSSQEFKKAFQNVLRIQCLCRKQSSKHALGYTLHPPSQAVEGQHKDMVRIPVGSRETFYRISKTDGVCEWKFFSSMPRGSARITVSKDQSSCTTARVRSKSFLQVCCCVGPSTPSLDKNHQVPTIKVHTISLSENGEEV
The experiment in a line: Binding affinity at the human alpha-1A adrenergic receptor. The note with it: Table 3c; read-out: hAlpha-1a Ki.
Text: as §1

Assay [3] deals with T4, human Histamine H1 receptor (Homo sapiens, UniProt P35367).
T4 construct: expressed in transfected cells
T4 sequence (P35367 whole entry): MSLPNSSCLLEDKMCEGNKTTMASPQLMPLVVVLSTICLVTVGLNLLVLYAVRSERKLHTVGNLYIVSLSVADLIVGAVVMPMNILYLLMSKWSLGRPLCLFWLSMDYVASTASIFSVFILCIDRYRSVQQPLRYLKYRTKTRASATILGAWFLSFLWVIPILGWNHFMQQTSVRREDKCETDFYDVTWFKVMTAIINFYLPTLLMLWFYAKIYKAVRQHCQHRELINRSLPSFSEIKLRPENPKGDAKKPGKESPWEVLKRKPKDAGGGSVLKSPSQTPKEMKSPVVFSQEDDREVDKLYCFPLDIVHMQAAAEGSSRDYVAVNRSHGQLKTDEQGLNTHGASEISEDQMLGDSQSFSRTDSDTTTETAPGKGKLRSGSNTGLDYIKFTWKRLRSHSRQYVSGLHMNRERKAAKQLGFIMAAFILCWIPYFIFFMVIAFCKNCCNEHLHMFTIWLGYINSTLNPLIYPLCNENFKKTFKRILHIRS
In words: Binding affinity at the human histamine H1 receptor. The note with it: Table 3c; read-out: hH1 Ki.
Text: as §1

Where [4] appears, read: Examples 38-141, read-out: Ki (nM) rMCH1.

One may read the Ki as the equilibrium dissociation constant of an inhibitor or competing ligand from its target.

Where two headings read alike, the source gives them in different places.

T1 sequence (P14416 whole entry): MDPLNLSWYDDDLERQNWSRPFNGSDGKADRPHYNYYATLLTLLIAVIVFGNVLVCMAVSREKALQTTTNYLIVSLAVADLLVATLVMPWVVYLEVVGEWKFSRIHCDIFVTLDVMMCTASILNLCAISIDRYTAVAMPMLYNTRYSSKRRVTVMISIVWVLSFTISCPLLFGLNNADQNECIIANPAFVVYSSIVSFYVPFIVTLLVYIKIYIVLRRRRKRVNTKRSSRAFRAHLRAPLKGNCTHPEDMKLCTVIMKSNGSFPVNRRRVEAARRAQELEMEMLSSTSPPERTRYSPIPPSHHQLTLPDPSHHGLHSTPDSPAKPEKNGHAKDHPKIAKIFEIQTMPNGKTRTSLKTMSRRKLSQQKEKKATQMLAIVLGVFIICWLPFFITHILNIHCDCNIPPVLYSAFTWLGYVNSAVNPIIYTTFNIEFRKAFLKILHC

Turning to `CC(C)C(=O)Nc1cccc(C2CCN(CC[C@H](Oc3cc(C(F)(F)F)ccc3F)c3ccccc3)CC2)c1` [Example 122], the inhibitory constant (Ki) in assay [1] was found to be 0.132 µM; on rat MCH1 receptor (setting [4]), 3.3 nM; on rat MCH1 receptor (Table 3c, read-out: rMCH1 Ki) it was 3.3 nM; in assay [2], 0.944 µM; in assay [3], 3.47 µM.
Turning to `COc1cccc(CC(=O)Nc2cccc(C3CCN(CCCC(=O)c4ccc(C)c(C)c4)CC3)c2)c1` [Example 61], the Ki in assay [1] was found to be 1.14 µM; on rat MCH1 receptor (setting [4]), 14.2 nM; on rat MCH1 receptor (Table 3c, read-out: rMCH1 Ki) it was 14.2 nM; in assay [2], 0.0091 µM; in assay [3], 1.62 µM.
Turning to `O=C(Cc1ccccc1)Nc1cccc(C2CCN(CCCC(=O)c3ccc(Cl)cc3)CC2)c1` [Example 68], the Ki in assay [1] turned out to be 0.771 µM; at rat MCH1 receptor (setting [4]), 84 nM; on rat MCH1 receptor (Table 3c, read-out: rMCH1 Ki), 84 nM; in assay [2], 0.057 µM; in assay [3] it was 0.571 µM.
In the case of `CC(C)C(=O)Nc1cccc(C2CCN(CC[C@@H](Oc3cc(C(F)(F)F)ccc3F)c3ccccc3)CC2)c1` [Example 121], the Ki in assay [1] worked out at 0.331 µM; on rat MCH1 receptor (setting [4]), 17 nM; on rat MCH1 receptor (Table 3c, read-out: rMCH1 Ki) it was 17 nM; in assay [2], 1.72 µM; in assay [3], 9.39 µM.
Turning to `COc1cccc(O[C@@H](CCN2CCC(c3cccc(NC(=O)C(C)C)c3)CC2)c2ccccc2)c1` [Example 117], the inhibition constant (Ki) amounted to 0.281 µM in assay [1]; 13.6 nM on rat MCH1 receptor (setting [4]); 13.6 nM at rat MCH1 receptor (Table 3c, read-out: rMCH1 Ki); 0.31 µM in assay [2]; 0.969 µM in assay [3].
With `COC(CCN1CCC(c2cccc(NC(=O)C(C)C)c2)CC1)c1ccccc1` (centres unmarked) [Example 93], the Ki worked out at 35 µM in assay [1]; 29.1 nM at rat MCH1 receptor (setting [4]); 29.1 nM at rat MCH1 receptor (Table 3c, read-out: rMCH1 Ki); 1.09 µM in assay [2]; 16.7 µM in assay [3].
Take `COC(CCN1CCC(c2cccc(NC(=O)C(C)C)c2)CC1)c1ccc(Cl)cc1` (centres unmarked) [Example 91]: the Ki in assay [1] worked out at 9.65 µM; at rat MCH1 receptor (setting [4]), 11.5 nM; on rat MCH1 receptor (Table 3c, read-out: rMCH1 Ki), 11.5 nM; in assay [2] it was 0.533 µM; in assay [3], 2 µM.
Consider `CC(C)C(=O)Nc1cccc(C2CCN(CCCCCN3C(=O)c4ccccc4C3=O)CC2)c1` [Example 95, N-(3-{1-[5-(1,3-dioxo-1,3-dihydro-2H-isoindol-2-yl)pentyl]-4-piperidinyl]phenyl)-2-methylpropanamide], for which the Ki in assay [1] is > 50 µM; on rat MCH1 receptor (setting [4]), 11.8 nM; at rat MCH1 receptor (Table 3c, read-out: rMCH1 Ki), 11.8 nM; in assay [2], 2.94 µM; in assay [3], 6.4 µM.
Take `CC(C)C(=O)Nc1cccc(C2CCN(CCCC(c3ccc(F)cc3)c3ccc(F)cc3)CC2)c1` [Example 101]: the inhibition constant Ki in assay [1] was determined as 0.0422 µM; at rat MCH1 receptor (setting [4]) it was 1.6 nM; on rat MCH1 receptor (Table 3c, read-out: rMCH1 Ki) it was 1.6 nM; in assay [2] it was 0.018 µM; in assay [3], 0.0034 µM.
As for `CCC(C)C(=O)Nc1cccc(C2CCN(CCCNC(=O)C3=C(COC)NC(=O)N[C@@H]3c3ccc(F)c(F)c3)CC2)c1` (some centres unmarked) [Example 48], the Ki was > 50 µM in assay [1]; 22.1 nM on rat MCH1 receptor (setting [4]); 22.1 nM at rat MCH1 receptor (Table 3c, read-out: rMCH1 Ki); 16.6 µM in assay [2]; 7.77 µM in assay [3].
Turning to `COCC1=C(C(=O)OC)[C@H](c2ccc(F)c(F)c2)N(C(=O)NCCCN2CCC(c3cccc(N)c3)CC2)C(=O)N1` [Example 38, METHYL (4S)-3-[({3-[4-(3-AMINOPHENYL)-1-PIPERIDINYL]PROPYL}AMINO)CARBONYL]-4-(3,4-DIFLUOROPHENYL)-6-(METHOXYMETHYL)-2-OXO-1,2,3,4-TETRAHYDRO-5-PYRIMIDINECARBOXYLATE], the Ki in assay [1] is 2.37 µM; at rat MCH1 receptor (setting [4]) it was 1.34 nM; at rat MCH1 receptor (Table 3c, read-out: rMCH1 Ki) it was 1.34 nM; in assay [2], 0.0238 µM; in assay [3], 0.379 µM.
Regarding `CC(=O)Nc1cccc(C2CCN(CCCNC(=O)N3C(=O)NC(C)=C(C(C)=O)C3c3cc(F)c(F)c(F)c3)CC2)c1` (centres unmarked) [Example 51], the Ki in assay [1] worked out at 6.64 µM; at rat MCH1 receptor (setting [4]) it was 0.79 nM; at rat MCH1 receptor (Table 3c, read-out: rMCH1 Ki), 0.79 nM; in assay [2] it was 0.0101 µM; in assay [3] it was 1.23 µM.
With `CC(C)C(=O)Nc1cccc(C2CCN(CC[C@@H](Oc3ccccc3[N+](=O)[O-])c3ccccc3)CC2)c1` [Example 133], the Ki in assay [1] came out at 0.447 µM; on rat MCH1 receptor (setting [4]), 25.7 nM; at rat MCH1 receptor (Table 3c, read-out: rMCH1 Ki) it was 25.7 nM; in assay [2], 0.167 µM; in assay [3], 4.18 µM.
Consider `COC(CCN1CCC(c2cccc(NC(=O)C(C)C)c2)CC1)c1ccc(C)cc1` (centres unmarked) [Example 99], for which the inhibition constant (Ki) came out at 10.4 µM in assay [1]; 12 nM at rat MCH1 receptor (setting [4]); 12 nM at rat MCH1 receptor (Table 3c, read-out: rMCH1 Ki); 0.434 µM in assay [2]; 2.56 µM in assay [3].
Regarding `CC(C)C(=O)Nc1cccc(C2CCN(CC[C@H](Oc3ccc(C(F)(F)F)cc3)c3ccccc3)CC2)c1` [Example 109], the Ki in assay [1] was 0.191 µM; on rat MCH1 receptor (setting [4]), 7.1 nM; on rat MCH1 receptor (Table 3c, read-out: rMCH1 Ki) it was 7.1 nM; in assay [2] it was 0.221 µM; in assay [3], 1.32 µM.
Take `CC(C)C(=O)Nc1cccc(C2CCN(CC[C@@H](Oc3ccc(Cl)c(Cl)c3)c3ccccc3)CC2)c1` [Example 111]: the inhibition constant (Ki) in assay [1] worked out at 0.162 µM; at rat MCH1 receptor (setting [4]), 5 nM; at rat MCH1 receptor (Table 3c, read-out: rMCH1 Ki) it was 5 nM; in assay [2], 0.125 µM; in assay [3] it was 1.1 µM.
For `COc1ccc(O[C@H](CCN2CCC(c3cccc(NC(=O)C(C)C)c3)CC2)c2ccccc2)cc1OC` [Example 104], the Ki in assay [1] worked out at 0.735 µM; at rat MCH1 receptor (setting [4]), 6.7 nM; on rat MCH1 receptor (Table 3c, read-out: rMCH1 Ki) it was 6.7 nM; in assay [2], 0.452 µM; in assay [3], 6.39 µM.
Regarding `CCC1=C(C(=O)OCc2ccccc2)C(c2ccc(F)cc2F)N(C(=O)NCCCN2CCC(c3cccc(NC(C)=O)c3)CC2)C(=O)N1` (centres unmarked) [Example 52, BENZYL 3-{[(3-{4-[3-(ACETYLAMINO)PHENYL]-1-PIPERIDINYL}PROPYL)AMINO]CARBONYL}-4-(2,4-DIFLUOROPHENYL)-6-ETHYL-2-OXO-1,2,3,4-TETRAHYDRO-5-PYRIMIDINECARBOXYLATE], the Ki in assay [1] stood at 0.166 µM; at rat MCH1 receptor (setting [4]), 0.81 nM; on rat MCH1 receptor (Table 3c, read-out: rMCH1 Ki), 0.81 nM; in assay [2], 0.2 µM; in assay [3], 1.43 µM.
With `CC(C)C(=O)Nc1cccc(C2CCN(CCCCCCN3C(=O)c4ccccc4C3=O)CC2)c1` [Example 92], the Ki in assay [1] came to 12 µM; at rat MCH1 receptor (setting [4]), 62 nM; at rat MCH1 receptor (Table 3c, read-out: rMCH1 Ki), 62 nM; in assay [2], 1.49 µM; in assay [3] it was 2.45 µM.
Take `CC(C)C(=O)Nc1cccc(C2CCN(CCCC(=O)c3ccc(Oc4ccccc4)cc3)CC2)c1` [Example 82]: the inhibitory constant (Ki) was 1.98 µM in assay [1]; 192 nM on rat MCH1 receptor (setting [4]); 192 nM on rat MCH1 receptor (Table 3c, read-out: rMCH1 Ki); 0.516 µM in assay [2].
`COc1cccc(CC(=O)Nc2cccc(C3CCN(CCCC(=O)c4ccc(OC)cc4OC)CC3)c2)c1` [Example 80]: the inhibitory constant (Ki) was 1.25 µM in assay [1]; 67 nM on rat MCH1 receptor (setting [4]); 67 nM at rat MCH1 receptor (Table 3c, read-out: rMCH1 Ki); 0.127 µM in assay [2].
Regarding `COc1cccc(CC(=O)Nc2cccc(C3CCN(CCCC(=O)c4ccc(Oc5ccccc5)cc4)CC3)c2)c1` [Example 83], the Ki stood at 0.503 µM in assay [1]; 91 nM at rat MCH1 receptor (setting [4]); 91 nM at rat MCH1 receptor (Table 3c, read-out: rMCH1 Ki); 0.13 µM in assay [2].

The values above are taken from patent publication US20040038855A1 (priority 1999, published 2004).
